In PubChem BioAssay AID2060612 (Molecular Pharmacology Branch, DTP, NCI, 2025):
Where “and” joins values, the source holds several entries; their conditions need not be identical. Identical values can stand only once.

System: 565232-114-T-J1-PDC complex spheroid viability
Experiment: Anticancer human tumor 565232-114-T-J1-PDC patient-derived bladder carcinoma cell line growth inhibition [CLK]
Conditions: for viability, T/C: stronger effect = lower value
Method in brief: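 Multi-cell-type spheroids combined patient-derived tumor cells with HUVEC endothelial cells and human mesenchymal stem cells. Paired agents were dosed in half-log steps down from about clinical Cmax, or from 10 microM where Cmax was unknown.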

[1] = curve of first compound, second compound 0.0316 µM
[2] = curve of first compound, second compound 0.1 µM
[3] = curve of first compound, second compound 0.316 µM
[4] = curve of first compound, second compound 1 µM
[5] = curve of first compound, second compound 3.16 µM
[6] = curve of first compound, second compound 10 µM
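Further: spheroids exposed to compounds for 7 days before readout.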
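Wherever viability, T/C is given: 100% = DMSO vehicle wells with luminescence normalized to vehicle control.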

How did the viability, T/C (compound 0.0316 µM) turn out when `COc1ccc([C@@H](O)c2cc(-c3ncnc4cc(N5CCOCC5)ccc34)c(F)cc2Cl)nn1` was run?
The viability, T/C was 106% and 119%.

And the viability, T/C (compound 0.1 µM)?
The viability, T/C was 88.3% and 115%.

What about the viability, T/C (compound 0.316 µM) of the same compound?
The viability, T/C was 98.2% and 98.9%.

What about the viability, T/C (compound 1 µM) of the same compound?
The viability, T/C was 102% and 77.9%.

What about the viability, T/C (compound 3.16 µM) of the same compound?
Its viability, T/C is 77.2% and 117%.

What about the viability, T/C (compound 10 µM) of the same compound?
Its viability, T/C is 99.1% and 81.8%.

And the IC50 (curve of compound)?
Its IC50 is over 10000 nM.

`C=CC(=O)Nc1cc(Nc2nccc(-c3cn(C)c4ccccc34)n2)c(OC)cc1N(C)CCN(C)C` + CN1CCN(c2cc(C(=O)Nc3cc4cc(-c5cnn(C)c5)ccc4cn3)ccn2)CC1 was tested. Which IC50 [1] did it give?
The IC50 was over 300 nM.

And the IC50 [2]?
Its IC50 is over 300 nM.

What about the IC50 [3] of the same compound?
The IC50 was under 0.949 nM.

And the IC50 [4]?
The IC50 was under 0.949 nM.

What about the IC50 [5] of the same compound?
Its IC50 is under 0.949 nM.

What about the IC50 [6] of the same compound?
Its IC50 is under 0.949 nM.

What about the viability, T/C (second compound 0.0316 µM, first compound 0.000949 µM) of the same compound?
Its viability, T/C is 104%.

What about the viability, T/C (second compound 0.0316 µM, first compound 0.003 µM) of the same compound?
Its viability, T/C is 95.3%.

What about the viability, T/C (second compound 0.0316 µM, first compound 0.00949 µM) of the same compound?
The viability, T/C was 106%.

What about the viability, T/C (second compound 0.0316 µM, first compound 0.03 µM) of the same compound?
The viability, T/C was 84.1%.

And the viability, T/C (second compound 0.0316 µM, first compound 0.0949 µM)?
The viability, T/C was 90.6%.

And the viability, T/C (second compound 0.0316 µM, first compound 0.3 µM)?
The viability, T/C was 83.7%.

And the viability, T/C (second compound 0.1 µM, first compound 0.000949 µM)?
Its viability, T/C is 97.5%.

And the viability, T/C (second compound 0.1 µM, first compound 0.003 µM)?
The viability, T/C was 85.8%.

What about the viability, T/C (second compound 0.1 µM, first compound 0.00949 µM) of the same compound?
The viability, T/C was 110%.

What about the viability, T/C (second compound 0.1 µM, first compound 0.03 µM) of the same compound?
The viability, T/C was 89.3%.

What about the viability, T/C (second compound 0.1 µM, first compound 0.0949 µM) of the same compound?
The viability, T/C was 97.9%.

What about the viability, T/C (second compound 0.1 µM, first compound 0.3 µM) of the same compound?
Its viability, T/C is 94.5%.

And the viability, T/C (second compound 0.316 µM, first compound 0.000949 µM)?
The viability, T/C was 14.9%.

What about the viability, T/C (second compound 0.316 µM, first compound 0.003 µM) of the same compound?
The viability, T/C was 20.3%.

And the viability, T/C (second compound 0.316 µM, first compound 0.00949 µM)?
Its viability, T/C is 20.1%.

And the viability, T/C (second compound 0.316 µM, first compound 0.03 µM)?
The viability, T/C was 20.5%.

What about the viability, T/C (second compound 0.316 µM, first compound 0.0949 µM) of the same compound?
The viability, T/C was 18.7%.

And the viability, T/C (second compound 0.316 µM, first compound 0.3 µM)?
Its viability, T/C is 18.3%.

And the viability, T/C (second compound 1 µM, first compound 0.000949 µM)?
Its viability, T/C is 0.2%.

And the viability, T/C (second compound 1 µM, first compound 0.003 µM)?
Its viability, T/C is 0.26%.

And the viability, T/C (second compound 1 µM, first compound 0.00949 µM)?
The viability, T/C was 1.8%.

What about the viability, T/C (second compound 1 µM, first compound 0.03 µM) of the same compound?
The viability, T/C was 0.2%.

What about the viability, T/C (second compound 1 µM, first compound 0.0949 µM) of the same compound?
The viability, T/C was 0.2%.

What about the viability, T/C (second compound 1 µM, first compound 0.3 µM) of the same compound?
The viability, T/C was 1.48%.

What about the viability, T/C (second compound 3.16 µM, first compound 0.000949 µM) of the same compound?
Its viability, T/C is 0.23%.

What about the viability, T/C (second compound 3.16 µM, first compound 0.003 µM) of the same compound?
Its viability, T/C is 0.22%.

And the viability, T/C (second compound 3.16 µM, first compound 0.00949 µM)?
Its viability, T/C is 1.48%.

What about the viability, T/C (second compound 3.16 µM, first compound 0.03 µM) of the same compound?
Its viability, T/C is 0.22%.

And the viability, T/C (second compound 3.16 µM, first compound 0.0949 µM)?
The viability, T/C was 0.91%.

What about the viability, T/C (second compound 3.16 µM, first compound 0.3 µM) of the same compound?
Its viability, T/C is 0.82%.

What about the viability, T/C (second compound 10 µM, first compound 0.000949 µM) of the same compound?
The viability, T/C was 0.23%.

What about the viability, T/C (second compound 10 µM, first compound 0.003 µM) of the same compound?
Its viability, T/C is 0.26%.

And the viability, T/C (second compound 10 µM, first compound 0.00949 µM)?
The viability, T/C was 1.25%.

And the viability, T/C (second compound 10 µM, first compound 0.03 µM)?
Its viability, T/C is 1.11%.

What about the viability, T/C (second compound 10 µM, first compound 0.0949 µM) of the same compound?
Its viability, T/C is 1.9%.

And the viability, T/C (second compound 10 µM, first compound 0.3 µM)?
The viability, T/C was 1.19%.

What does the source list for `CCc1c2c(nc3ccc(O)cc13)-c1cc3c(c(=O)n1C2)COC(=O)[C@]3(O)CC`?
viability, T/C (compound 0.00316 µM): 91.1% and 106%; viability, T/C (compound 0.01 µM): 76.9% and 89.2%; viability, T/C (compound 0.0316 µM): 66.4% and 18%; viability, T/C (compound 0.316 µM): 18.8% and 5.03%; viability, T/C (compound 1 µM): 5.24% and 1.76%; IC50 (curve of compound): 65.5 nM and 18.9 nM

Which IC50 [1] does the source give for `Nc1ccccc1NC(=O)c1ccc(CNC(=O)OCc2cccnc2)cc1` + CN1CCN(c2cc(C(=O)Nc3cc4cc(-c5cnn(C)c5)ccc4cn3)ccn2)CC1 here?
Its IC50 is 5260 nM.

And the IC50 [2]?
Its IC50 is 2660 nM.

What about the IC50 [3] of the same compound?
Its IC50 is under 31.6 nM.

What about the IC50 [4] of the same compound?
The IC50 was under 31.6 nM.

And the IC50 [5]?
The IC50 was under 31.6 nM.

And the IC50 [6]?
Its IC50 is under 31.6 nM.

And the viability, T/C (second compound 0.0316 µM, first compound 0.0316 µM)?
Its viability, T/C is 110%.

What about the viability, T/C (second compound 0.0316 µM, first compound 0.1 µM) of the same compound?
Its viability, T/C is 108%.

And the viability, T/C (second compound 0.0316 µM, first compound 0.316 µM)?
The viability, T/C was 111%.

What about the viability, T/C (second compound 0.0316 µM, first compound 1 µM) of the same compound?
Its viability, T/C is 100%.

And the viability, T/C (second compound 0.0316 µM, first compound 3.16 µM)?
The viability, T/C was 89.8%.

What about the viability, T/C (second compound 0.0316 µM, first compound 10 µM) of the same compound?
The viability, T/C was 1.38%.

And the viability, T/C (second compound 0.1 µM, first compound 0.0316 µM)?
Its viability, T/C is 107%.

What about the viability, T/C (second compound 0.1 µM, first compound 0.1 µM) of the same compound?
Its viability, T/C is 93.5%.

And the viability, T/C (second compound 0.1 µM, first compound 0.316 µM)?
Its viability, T/C is 92.5%.

What about the viability, T/C (second compound 0.1 µM, first compound 1 µM) of the same compound?
The viability, T/C was 89.9%.

What about the viability, T/C (second compound 0.1 µM, first compound 3.16 µM) of the same compound?
Its viability, T/C is 42.9%.

What about the viability, T/C (second compound 0.1 µM, first compound 10 µM) of the same compound?
The viability, T/C was 0.29%.

And the viability, T/C (second compound 0.316 µM, first compound 0.0316 µM)?
The viability, T/C was 16.2%.

What about the viability, T/C (second compound 0.316 µM, first compound 0.1 µM) of the same compound?
Its viability, T/C is 23%.

What about the viability, T/C (second compound 0.316 µM, first compound 0.316 µM) of the same compound?
The viability, T/C was 11.5%.

And the viability, T/C (second compound 0.316 µM, first compound 1 µM)?
Its viability, T/C is 9.54%.

What about the viability, T/C (second compound 0.316 µM, first compound 3.16 µM) of the same compound?
The viability, T/C was 2.07%.

What about the viability, T/C (second compound 0.316 µM, first compound 10 µM) of the same compound?
Its viability, T/C is 0.07%.

What about the viability, T/C (second compound 1 µM, first compound 0.0316 µM) of the same compound?
The viability, T/C was 0.15%.

And the viability, T/C (second compound 1 µM, first compound 0.1 µM)?
The viability, T/C was 1.24%.

And the viability, T/C (second compound 1 µM, first compound 0.316 µM)?
Its viability, T/C is 3.47%.

And the viability, T/C (second compound 1 µM, first compound 1 µM)?
Its viability, T/C is 0.16%.

What about the viability, T/C (second compound 1 µM, first compound 3.16 µM) of the same compound?
Its viability, T/C is 1.45%.

And the viability, T/C (second compound 1 µM, first compound 10 µM)?
The viability, T/C was 0.11%.

And the viability, T/C (second compound 3.16 µM, first compound 0.0316 µM)?
The viability, T/C was 0.3%.

And the viability, T/C (second compound 3.16 µM, first compound 0.1 µM)?
Its viability, T/C is 3.93%.

What about the viability, T/C (second compound 3.16 µM, first compound 0.316 µM) of the same compound?
The viability, T/C was 3.86%.

What about the viability, T/C (second compound 3.16 µM, first compound 1 µM) of the same compound?
The viability, T/C was 0.23%.

What about the viability, T/C (second compound 3.16 µM, first compound 3.16 µM) of the same compound?
Its viability, T/C is 0.19%.

And the viability, T/C (second compound 3.16 µM, first compound 10 µM)?
The viability, T/C was 0.18%.

What about the viability, T/C (second compound 10 µM, first compound 0.0316 µM) of the same compound?
Its viability, T/C is 0.11%.

And the viability, T/C (second compound 10 µM, first compound 0.1 µM)?
The viability, T/C was 0.5%.

What about the viability, T/C (second compound 10 µM, first compound 0.316 µM) of the same compound?
The viability, T/C was 2.65%.

And the viability, T/C (second compound 10 µM, first compound 1 µM)?
Its viability, T/C is 0.16%.

What about the viability, T/C (second compound 10 µM, first compound 3.16 µM) of the same compound?
Its viability, T/C is 0.94%.

What about the viability, T/C (second compound 10 µM, first compound 10 µM) of the same compound?
Its viability, T/C is 0.18%.
